Counter-ions that a name gives are not always drawn. Like-named read-outs stand apart in the source and are kept apart here.
Key:
[1] = test system: mu receptors; assay type: cell-based, guinea pig
[2] = test system: electrically stimulated guinea pig ileum; test: tissue or blood; assay type: cell-based
[3] = biological target: T1, delta receptors (Cavia porcellus, UniProt A0A286XTF2); test: biochemical; assay type: binding, guinea pig
T1 construct: The brains were then homogenized in 50 mM Tris HCl, buffer pH 7.7, using a Polytron; from tissue; host or cells: guinea pig brain homogenate (membrane pellet)
T1 sequence (A0A286XTF2 1-366): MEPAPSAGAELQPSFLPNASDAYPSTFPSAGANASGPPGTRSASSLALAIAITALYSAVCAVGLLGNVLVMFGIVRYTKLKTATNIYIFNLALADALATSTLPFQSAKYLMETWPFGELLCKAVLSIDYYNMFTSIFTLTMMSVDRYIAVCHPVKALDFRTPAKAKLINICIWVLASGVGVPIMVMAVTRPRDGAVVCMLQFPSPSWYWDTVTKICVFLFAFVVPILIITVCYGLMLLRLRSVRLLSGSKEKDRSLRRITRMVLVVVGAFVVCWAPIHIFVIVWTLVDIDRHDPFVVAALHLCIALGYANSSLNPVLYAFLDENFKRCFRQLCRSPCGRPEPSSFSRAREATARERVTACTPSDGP

[4] = test system: κ2 sites; assay type: binding, guinea pig
[5] = biological target: mu opioid receptors (Cavia porcellus, UniProt A0ACM8Q262); assay type: binding, guinea pig; conditions: read-out: Ki μ [^3H]DAMGO
mu opioid receptors, sequence (A0ACM8Q262 1-400): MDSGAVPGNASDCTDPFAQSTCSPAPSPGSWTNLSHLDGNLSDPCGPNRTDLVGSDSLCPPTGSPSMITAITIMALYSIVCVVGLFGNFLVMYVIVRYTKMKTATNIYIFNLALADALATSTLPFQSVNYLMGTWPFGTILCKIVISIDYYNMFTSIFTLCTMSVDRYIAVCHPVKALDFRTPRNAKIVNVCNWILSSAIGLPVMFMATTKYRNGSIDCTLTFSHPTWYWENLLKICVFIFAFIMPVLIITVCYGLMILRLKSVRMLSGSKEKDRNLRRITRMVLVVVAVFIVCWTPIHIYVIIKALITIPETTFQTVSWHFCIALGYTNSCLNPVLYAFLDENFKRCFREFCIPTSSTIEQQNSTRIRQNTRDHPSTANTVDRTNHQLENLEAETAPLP

[6] = biological target: kappa3 receptors; assay type: binding, guinea pig; conditions: read-out: Ki κ3 [^3H]NalBzoH
[7] = test system: electrically stimulated mouse vas deferens; test: tissue or blood; assay type: cell-based
[8] = biological target: T2, kappa receptors (Cavia porcellus, UniProt P41144); assay type: cell-based, guinea pig
T2 construct: The longitudinal muscle with the myenteric plexus attached was gently separated from the underlying circular muscle; from tissue; host or cells: guinea pig ileum longitudinal muscle with myenteric plexus
T2 sequence (P41144 whole entry): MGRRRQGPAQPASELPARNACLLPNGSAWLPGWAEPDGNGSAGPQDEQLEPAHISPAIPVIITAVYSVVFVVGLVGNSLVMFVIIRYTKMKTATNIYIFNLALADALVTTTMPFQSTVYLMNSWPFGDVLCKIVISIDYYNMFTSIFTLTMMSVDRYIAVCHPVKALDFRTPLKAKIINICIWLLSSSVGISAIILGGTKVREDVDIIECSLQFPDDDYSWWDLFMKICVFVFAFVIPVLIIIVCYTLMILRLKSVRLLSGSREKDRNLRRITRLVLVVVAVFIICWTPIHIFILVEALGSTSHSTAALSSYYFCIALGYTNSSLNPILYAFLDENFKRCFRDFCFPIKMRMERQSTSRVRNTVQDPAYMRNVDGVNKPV

[9] = biological target: T3, delta receptors (Mus musculus, UniProt P32300); assay type: cell-based
T3 construct: The vas deferens from Swiss-Webster mice (30-35 g) were prepared as described by Hughes et al; from tissue; host or cells: mouse vas deferens (Swiss-Webster)
T3 sequence (P32300 whole entry): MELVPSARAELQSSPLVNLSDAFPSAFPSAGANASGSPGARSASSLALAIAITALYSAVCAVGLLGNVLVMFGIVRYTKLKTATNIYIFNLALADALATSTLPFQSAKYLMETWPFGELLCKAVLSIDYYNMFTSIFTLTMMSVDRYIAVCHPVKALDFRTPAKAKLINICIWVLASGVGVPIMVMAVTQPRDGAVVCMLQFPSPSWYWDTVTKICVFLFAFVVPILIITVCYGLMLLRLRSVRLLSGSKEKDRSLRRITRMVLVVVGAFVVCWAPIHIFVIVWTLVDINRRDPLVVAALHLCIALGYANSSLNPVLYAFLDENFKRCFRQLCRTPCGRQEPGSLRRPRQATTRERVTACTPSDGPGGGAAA

[10] = read-out: Guinea Pig Ileum IC50
[11] = read-out: IC50 (nM), Guinea Pigs Ileum
[12] = read-out: Mouse Vas Deferens IC50
[13] = Mus musculus, read-out: Mouse Vas Deferens IC50 (nM)
[14] = Cavia porcellus, read-out: Guinea Pig Ileum IC50 (nM)
[15] = read-out: IC50 (nM), Mouse Vas Deferens

## 3-O-benzoyl-7,8-dihydromorphine-6-O-sulfate [NIDA # 20,275]
[1]
  Guinea Pig Ileum DR with CTAP: 4.03 ± 1.51
  Guinea Pig Ileum Ke of CTAP: 37.64 ± 18.74
[2]; [10]
  IC50: 649 ± 131 nM
[3]; read-out: Ki δ [^3H]Cl-DPDPE
  Ki: 1600 nM
[4]
  IC50: > 10000 nM
[5]
  Ki: 61.8 nM

## CCC12CCN(CC3(O)CC3)C(Cc3ccc(O)cc31)C2(C)C (single isomer, unassigned; (+)) [(+)Bremazocine]
[3]; read-out: Ki δ [^3H]Cl-DPDPE
  Ki: 0.7 nM
[4]
  IC50: 11.2 nM
[5]
  Ki: 0.1 nM
[6]
  Ki: 0.1 nM

## CCC12CCN(CC3CC3)C(C(=O)c3ccc(O)cc31)C2C (single isomer, unassigned; (+)) [(+)EKC-sulfonate]
[3]; read-out: Ki δ, experiment done with [^3H]DPDPE
  Ki: 2.6 nM
[4]
  IC50: 133 nM
[5]
  Ki: 1.1 nM
[6]
  Ki: 5.3 nM

## CCC12CCN(CC3(O)CC3)C(Cc3ccc(O)cc31)C2(C)C (single isomer, unassigned; (-)) [(−)Bremazocine]
[1]
  DR with CTAP: 0.83
[2]; [11]
  IC50: 0.067 nM
[3]; read-out: Ki δ [^3H]Cl-DPDPE
  Ki: 0.3 nM
[4]
  IC50: 2.2 nM
[5]
  Ki: 0.1 nM
[6]
  Ki: 0.1 nM

## CC(C)C[C@@H](NC(=O)[C@H](Cc1ccccc1)NC(=O)CNC(=O)[C@@H](C)NC(=O)[C@@H](N)Cc1ccc(O)cc1)C(=O)O [DADLE-OH]
[7]; [12]
  IC50: 1.6 nM
[1]
  Guinea Pig Ileum DR with CTAP: 4.33
  Guinea Pig Ileum Ke of CTAP: 30.58
[8]
  Guinea Pig Ileum DR with Nor-BNI: 1.53
  Guinea Pig Ileum Ke of Nor-BNI: 38.13
[2]; [10]
  IC50: 13.4 nM
[3]
  Ki: 0.3 nM
[4]
  IC50: > 10000 nM
[6]
  Ki: 692 nM

## C[C@@H](NC(=O)[C@@H](N)Cc1ccc(O)cc1)C(=O)NCC(=O)N(C)[C@@H](Cc1ccccc1)C(=O)NCCO [DAMGO, [D-Ala^2,N-Me-Phe^4,Gly-ol^5]-enkephalin]
[7]; [12]
  IC50: 178 nM
[1]
  Guinea Pig Ileum DR with CTAP: 4.98
  Guinea Pig Ileum Ke of CTAP: 25.31
  Guinea Pig Ileum Ratio (CTAP): 1.000
[8]
  Guinea Pig Ileum DR with Nor-BNI: 1.74
  Guinea Pig Ileum Ke of Nor-BNI: 27.67
  Guinea Pig Ileum Ratio (Nor-BNI): 0.002
[2]; [10]
  IC50: 8.25 nM
[9]
  Mouse Vas Deferens DR with Naltrindole: 0.93

## CC1(C)SSC(C)(C)[C@@H](NC(=O)[C@@H](N)Cc2ccc(O)cc2)C(=O)NCC(=O)N[C@@H](Cc2ccc(Cl)cc2)C(=O)N[C@H]1C(=O)O [DPDPE-Cl]
[3]; read-out: Ki δ [^3H]Cl-DPDPE
  Ki: 0.3 nM
[4]
  IC50: > 10000 nM
[6]
  Ki: 1030 nM

## CN1CC[C@]23c4c5ccc(O)c4O[C@H]2[C@@H](O)CC[C@H]3[C@H]1C5 [Dihydromorphine, 7,8-Dihydromorphine]
[7]; [13]
  IC50: 8.11 nM
[1]
  Guinea Pig Ileum DR with CTAP: 12.46
  Guinea Pig Ileum Ke of CTAP: 17.46
[2]; [14]
  IC50: 42.4 nM

## CN1CC[C@]23c4c5ccc(OS(=O)(=O)O)c4O[C@H]2[C@@H](O)C=C[C@H]3[C@H]1C5 [NIDA # 20,268, morphine-3-O-sulfate]
[3]
  Ki: > 10000 nM
[4]
  IC50: > 10000 nM
[6]
  Ki: 1690 nM

## C[N+]1(C)CC[C@]23c4c5ccc(OC(=O)c6ccccc6)c4O[C@H]2[C@@H](OS(=O)(=O)[O-])C=C[C@H]3[C@H]1C5 [NIDA # 20,274, 3-O-Benzoyl-N-methylmorphinium-6-O-sulfate]
[2]; Cavia porcellus, read-out: Guinea pig ileum maximum inhibition
  inhibition at 100 µM: 38%
[3]
  Ki: > 10000 nM
[4]
  IC50: > 10000 nM
[6]
  Ki: > 10000 nM

## C=CCN1CC[C@]23c4c5ccc(O)c4O[C@H]2[C@@H](O)C=C[C@H]3[C@H]1C5 [Nalorphine]
[1]
  Guinea Pig Ileum DR with CTAP: 0.90
[8]
  Guinea Pig Ileum DR with Nor-BNI: 643.9
  Guinea Pig Ileum Ke of Nor-BNI: 0.03
[2]; [14]
  IC50: 29.2 nM

## O=C1CC[C@@]2(O)[C@H]3Cc4ccc(O)c5c4[C@@]2(CCN3CC2CC2)[C@H]1O5 [Naltrexone-HCl]
[4]
  IC50: 230 nM
[6]
  Ki: 3.8 nM

## Oc1ccc2c3c1O[C@H]1[C@@H](O)C=C[C@H]4[C@@H](C2)NCC[C@@]341 [Normorphine]
[7]; [13]
  IC50: 512 nM
[1]
  Guinea Pig Ileum DR with CTAP: 3.02
  Guinea Pig Ileum Ke of CTAP: 50.25
  Guinea Pig Ileum Ratio (CTAP): 0.500
[8]
  Guinea Pig Ileum DR with Nor-BNI: 1.90
  Guinea Pig Ileum Ke of Nor-BNI: 26.47
  Guinea Pig Ileum Ratio (Nor-BNI): 0.002
[2]; [14]
  IC50: 47.3 nM
[9]
  Mouse Vas Deferens DR with Naltrindole: 1.06
  Mouse Vas Deferens Ke of Naltrindole: 8.38 ± 0
  Mouse Vas Deferens Ratio (Naltrindole): 0.0025

## COc1ccc2c3c1O[C@H]1C(=O)CC[C@@]4(O)[C@@H](C2)N(C)CC[C@]314 [Oxycodone]
[7]; [13]
  IC50: 6330 nM
[1]
  Guinea Pig Ileum DR with CTAP: 2.30
  Guinea Pig Ileum Ke of CTAP: 78.66
  Guinea Pig Ileum Ratio (CTAP): 0.322
[8]
  Guinea Pig Ileum DR with Nor-BNI: 1.45
  Guinea Pig Ileum Ke of Nor-BNI: 45.84
  Guinea Pig Ileum Ratio (Nor-BNI): 0.001
[2]; [14]
  IC50: 324 nM
[9]
  Mouse Vas Deferens DR with Naltrindole: 0.79

## COC(=O)/C=C/C(=O)N[C@@H]1CC[C@@]2(O)[C@H]3Cc4ccc(O)c5c4[C@@]2(CCN3CC2CC2)[C@H]1O5 [β-FNA-HCl]
[4]
  IC50: 66.5 nM
[5]
  Ki: 0.4 nM
[6]
  Ki: 0.8 nM

## (−) Cyclazocine
[1]
  Guinea Pig Ileum DR with CTAP: 1.00 ± 0.00
[2]; [10]
  IC50: 1.05 nM
[4]
  IC50: 17.3 nM
[5]
  Ki: 0.1 nM
[6]
  Ki: 0.2 nM

## Dynorphin (1-13)-NH2
[4]
  IC50: 24.6 nM
[6]
  Ki: 4.1 nM

## Dynorphin (1-13)-OH
[4]
  IC50: 180 nM
[6]
  Ki: 15.4 nM

## Dynorphin (1-17)-OH
[4]
  IC50: 29.5 nM
[6]
  Ki: 5.1 nM

## Dynorphin A (1-17)
[7]; [15]
  IC50: 29.3 nM
[1]
  DR with CTAP: 1.52
  Ke of CTAP: 209.89
[2]; [11]
  IC50: 0.95 nM

## Dynorphin B
[7]; [15]
  IC50: 39.1 nM
[1]
  DR with CTAP: 1.08
  Ke of CTAP: 344.83
[2]; [11]
  IC50: 4.4 nM

## Dynorphin B-OH
[4]
  IC50: 70 nM
[6]
  Ki: 14.2 nM

## Dynorphin(1-9)-OH
[7]; [12]
  IC50: 12.2 nM
[1]
  Guinea Pig Ileum DR with CTAP: 1.13
  Guinea Pig Ileum Ke of CTAP: 357.14
[2]; [10]
  IC50: 4.69 nM
[9]
  Mouse Vas Deferens DR with Naltrindole: 5.71
  Mouse Vas Deferens Ke of Naltrindole: 0.281
[4]
  IC50: 324 nM
[6]
  Ki: 20.2 nM

## Met-Enkephalin
[7]; [12]
  IC50: 1.52 nM
[1]
  Guinea Pig Ileum DR with CTAP: 5.08±
  Guinea Pig Ileum Ke of CTAP: 24.50
[2]; [10]
  IC50: 27.4 nM
[9]
  Mouse Vas Deferens DR with Naltrindole: 13.63
  Mouse Vas Deferens Ke of Naltrindole: 0.082
[4]
  IC50: > 10000 nM
[6]
  Ki: 277 nM

## [D-Pen^3.5-enkephalin] [DPDPE-OH]
[1]
  Guinea Pig Ileum DR with CTAP: 5.64
  Guinea Pig Ileum Ke of CTAP: 25.83
  Guinea Pig Ileum Ratio (CTAP): 0.980
[8]
  Guinea Pig Ileum DR with Nor-BNI: 1.54
  Guinea Pig Ileum Ke of Nor-BNI: 50.68
  Guinea Pig Ileum Ratio (Nor-BNI): 0.001
[2]; [10]
  IC50: 4130 nM
[9]
  Mouse Vas Deferens DR with Naltrindole: 53.11
  Mouse Vas Deferens Ke of Naltrindole: 0.021
  Mouse Vas Deferens Ratio (Naltrindole): 1.000
[4]
  IC50: > 10000 nM
[6]
  Ki: > 1000 nM

— US6403602B1 (priority 1997, dated 2002)
